Results taken from patent US10676466B2, “Crystalline hydrate of the compound (2S,3R)-isopropyl 2-(((2-(1,5-dimethyl-6-oxo-1,6-dihydropyridin-3-yl)-1-((tetrahydro-2H-pyran-4-yl)methyl)-1H-benzo[D]imidazol-5-yl)methyl)amino)-3-hydroxybutanoate edisylate” (GLAXOSMITHKLINE INTELLECTUAL PROPERTY DEVELOPMENT LIMITED, priority 2016, dated 2020).
Counter-ions that a name gives are not always drawn.

Key:
[1] = test system: MCP-1 production; assay: LPS induced MCP-1 production from human whole blood; type: cell-based; settings: LPS 200 ng/mL, 18-24 hours
Description: Activation of monocytic cells by agonists of toll-like receptors such as bacterial lipopolysaccharide (LPS) results in production of key inflammatory mediators including MCP-1. Such pathways are widely considered to be central to the pathophysiology of a range of auto-immune and inflammatory disorders. Blood is collected in a tube containing Sodium heparin (Leo Pharmaceuticals) (10 units of heparin/mL of blood). 96-well compound plates containing 1 μL test sample in 100% DMSO were prepared (two replicates on account of donor variability). 130 μL of whole blood was dispensed into each well of the 96-well compound plates and incubated for 30 min at 37° C., 5% CO2. 10 μL of lipopolysaccharide (from Salmonella typhosa; L6386) made up in PBS (200 ng/mL final assay concentration) was added to each well of the compound plates. The plates were then placed in the humidified primary cell incubator for 18-24 hours at 37° C., 5% CO2. 140 μL of PBS was added to all wells of the compound plates containing blood. The plates were then sealed and centrifuged for 10 mins at 2500 rpm. […] 150 μL of 2×MSD Read Buffer T (stock 4×MSD Read Buffer T was diluted 50:50 with de-ionised water) was then added to each well and the plates read on the MSD Sector Imager 6000. Concentration response curves for each compound were generated from the data and an pIC50 value was calculated.

[2] = target: T1, recombinant human CES1 (Homo sapiens, UniProt P23141); assay: Hydrolysis by hCES-1 (HPLC assay); type: in vitro ADME; settings: 50 μM test compound, 50 nM CES1, 20° C., pH 7.5, n=2
T1 construct: Recombinant human CES1 (Gly18-Glu563, bearing a polyhistidine tag at the C-terminus); purchased Novoprotein, Summit, N.J., USA C450; host or cells: human cells
T1 sequence (P23141 18-563): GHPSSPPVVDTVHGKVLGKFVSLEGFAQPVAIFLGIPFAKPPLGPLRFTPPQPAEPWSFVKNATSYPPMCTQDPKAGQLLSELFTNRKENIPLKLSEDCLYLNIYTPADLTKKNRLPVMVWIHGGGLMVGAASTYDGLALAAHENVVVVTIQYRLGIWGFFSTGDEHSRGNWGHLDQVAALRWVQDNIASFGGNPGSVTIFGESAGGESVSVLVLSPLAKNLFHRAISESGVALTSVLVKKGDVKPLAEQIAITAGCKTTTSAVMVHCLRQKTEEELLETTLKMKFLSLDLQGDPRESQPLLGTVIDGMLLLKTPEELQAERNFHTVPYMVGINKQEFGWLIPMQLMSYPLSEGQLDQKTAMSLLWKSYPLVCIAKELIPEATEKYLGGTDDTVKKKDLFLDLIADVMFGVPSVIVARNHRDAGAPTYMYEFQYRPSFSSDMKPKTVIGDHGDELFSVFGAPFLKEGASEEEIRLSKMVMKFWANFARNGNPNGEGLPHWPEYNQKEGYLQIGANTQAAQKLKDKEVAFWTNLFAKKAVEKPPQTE
Description: Hydrolysis of ESM-containing BET inhibitors by carboxylesterase 1 (CES1) is one aspect of delivering a targeted molecule. Rates of hydrolysis of certain compounds of the invention by recombinant human CES1 were determined using an HPLC assay. Recombinant human CES1 (Gly18-Glu563, bearing a polyhistidine tag at the C-terminus) expressed in human cells and purified to homogeneity was obtained from Novoprotein, Summit, N.J., USA (catalogue number C450). Reactions were run in 384 well plates at 20° C. in a buffer of 50 mM sodium phosphate pH 7.5/100 mM NaCl. Assays used a fixed concentration of test compound (50 μM) and CES1 (50 nM) and a time course of the reaction was obtained by stopping samples at increasing times by addition of formic acid to lower the pH. Stopped samples were subsequently analysed by HPLC to resolve product acid from unhydrolysed ester, using a 50×2 mm C18 […] reversed-phase column (Phenomenex Gemini) at a flow rate of 1 ml/min using a gradient of acetonitrile in water, containing 0.1% formic acid. Chromatogaphy was monitored using absorbance at 300 nm wavelength. The % of product formed was determined using integrated peak areas and used to determine the initial rate of the reaction. […]

[3] = test system: Bromodomains BRD2, BRD3, BRD4 and BRDT; assay: Fluoroligand binding to mutated vs non-mutated bromodomain (TR-FRET); set-up: species or system Human; settings: single residue mutations in the acetyl lysine binding pocket
Description: The binding of compounds of the invention to Bromodomains BRD2, BRD3, BRD4 and BRDT was assessed using mutated proteins to detect differential binding to either Binding Domain 1 (BD1) or Binding Domain 2 (BD2) on the bromodomain. These single residue mutations in the acetyl lysine binding pocket greatly lower the affinity of the fluoroligand (Reference Compound X) for the mutated domain (>1000 fold selective for the non-mutated domain). Therefore in the final assay conditions, binding of the fluoroligand to the mutated domain cannot be detected and subsequently the assay is suitable to determine the binding of compounds to the single non-mutated bromodomain.
Recombinant Human Bromodomains [(BRD2 (1-473) (Y113A) and (Y386A), BRD3 (1-435) (Y73A) and (Y348A) BRD4 (1-477) (Y97A) and (Y390A) and BRDT (1-397) (Y66A) and (Y309A)] were expressed in E. coli cells (in pET15b vector for BRD2/3/4 and in pET28a vector for BRDT) with a 6-His tag at the N-terminal. The His-tagged Bromodomain pellet was resuspended in 50 mM HEPES (pH7.5), 300 mM NaCl, 10 mM imidazole & 1 μl/ml protease inhibitor cocktail and extracted from the E. coli cells using sonication and purified using a nickel sepharose high performance column, the proteins were washed and then eluted with a linear gradient of 0-500 mM imidazole with buffer 50 mM HEPES (pH7.5), 150 mM NaCl, 500 mM imidazole, over 20 column volumes. […]

SMILES: Cc1cc(-c2nc3cc(CN[C@H](C(=O)OC(C)C)[C@@H](C)O)ccc3n2CC2CCOCC2)cn(C)c1=O [edisylate salt of Example 1, Edisylate Salt of (2S,3R)-Isopropyl 2-(((2-(1,5-dimethyl-6-oxo-1,6-dihydropyridin-3-yl)-1-((tetrahydro-2H-pyran-4-yl)methyl)-1H-benzo[d]imidazol-5-yl)methyl)amino)-3-hydroxybutanoate]
- mean pIC50, LPS induced MCP-1 production [1]: 7.5

SMILES: Cc1cc(-c2nc3cc(CN[C@H](C(=O)OC(C)C)[C@@H](C)O)ccc3n2CC2CCOCC2)cn(C)c1=O (as salt: edisylate) (hydrate or solvate) [Example 1, (2S,3R)-Isopropyl 2-(((2-(1,5-dimethyl-6-oxo-1,6-dihydropyridin-3-yl)-1-((tetrahydro-2H-pyran-4-yl)methyl)-1H-benzo[d]imidazol-5-yl)methyl)amino)-3-hydroxybutanoate]
- melting point: ~ 223 °C

SMILES: Cc1cc(-c2nc3cc(CN[C@H](C(=O)OC(C)C)[C@@H](C)O)ccc3n2CC2CCOCC2)cn(C)c1=O [Example 1, (2S,3R)-Isopropyl 2-(((2-(1,5-dimethyl-6-oxo-1,6-dihydropyridin-3-yl)-1-((tetrahydro-2H-pyran-4-yl)methyl)-1H-benzo[d]imidazol-5-yl)methyl)amino)-3-hydroxybutanoate]
- IC50 ([1]; Homo sapiens, read-out: mean pIC50, LPS induced MCP-1 production (converted)): 25.1 nM
- mean rate of hydrolysis (specific activity of CES1) [2]: 0.21 μM/min/μM

SMILES: COc1ccc2c(c1)C(c1ccc(Cl)cc1)=N[C@@H](CC(=O)NCCCCCNC(=O)CCCCCC1(C)/C(=C/C=C/C=C/C3=[N+](CCCCS(=O)(=O)O)c4ccc(S(=O)(=O)O)cc4C3(C)C)N(CCCCS(=O)(=O)[O-])c3ccc(S(=O)(=O)O)cc31)c1nnc(C)n1-2 (some centres unmarked) [Reference Compound X]
- selectivity for the non-mutated domain over the mutated domain [3]: > 1000 fold
